Test results published in US8778889B2, “Antimicrobial decapeptide oral hygiene treatment” (The United States of America as represented by the …, priority 2003, dated 2014).

Experiments:
A. baumannii WRAMC #15 = type: cell-based, Acinetobacter baumannii
Description: (§1) As shown in the table below, many drug-resistant pathogens including multidrug-resistant Acinetobacter baumannii (clinical isolates) were susceptible to the bactericidal activity of the newly developed antimicrobial peptides. […] This is shown by their lower MIC and MBC against a number of antibiotic-resistant bacteria including methicillin-resistant Staphylococcus aureus, vancomycin-resistant Enterococci, and multidrug-resistant Acinetobacter baumannii. Many of these resistant strains are involved in nosocomial infections, which affect the immunocompromised and the elderly individuals with weakened defenses. The tests were done in a broth microdilution assay as described in our earlier publication (Concannon et al., 2003).

A. baumannii WRAMC #8 = type: cell-based, Acinetobacter baumannii
Description: as §1

A. baumannii WRAMC #18 = type: cell-based, Acinetobacter baumannii
Description: as §1

A. baumannii WRAMC #4 = type: cell-based, Acinetobacter baumannii
Description: as §1

A. baumannii ATCC #19606 = type: cell-based, Acinetobacter baumannii
Description: as §1

A. baumannii WRAMC #13 = type: cell-based, Acinetobacter baumannii
Description: as §1

A. baumannii WRAMC #19 = type: cell-based, Acinetobacter baumannii
Description: as §1

A. baumannii WRAMC #16 = type: cell-based, Acinetobacter baumannii
Description: as §1

A. baumannii WRAMC #5 = type: cell-based, Acinetobacter baumannii
Description: as §1

A. baumannii WRAMC #11 = type: cell-based, Acinetobacter baumannii
Description: as §1

A. baumannii WRAMC #2 = type: cell-based, Acinetobacter baumannii
Description: as §1

A. baumannii WRAMC #17 = type: cell-based, Acinetobacter baumannii
Description: as §1

A. baumannii WRAMC #14 = type: cell-based, Acinetobacter baumannii
Description: as §1

VRE ATCC #51299 = type: cell-based, Enterococci
Description: as §1

VRE VVRAMC #7 = type: cell-based, Enterococci
Description: as §1

VRE WRAMC #3 = type: cell-based, Enterococci
Description: as §1

VRE WRAMC #6 = type: cell-based, Enterococci
Description: as §1

Actinomyces naeslundii = assay: Adherence inhibition of tritiated A. naeslundii to saliva-coated HA disks; type: cell-based; details: disks pretreated with KSL-W 1 mg/ml; 2 hour incubation at 37° C.
Description: In these studies, saliva-coated HA disks pre-treated with salivary proteins, KSL-W (1 mg/ml), or chlorhexidine (1 mg/ml), were used as colonizable surfaces to test the adherence of tritiated A. naeslundii, an early colonizer that is involved in dental plaque formation. In these experiments, labeled A. naeslundii ([…] cells per ml) were incubated for 2 h with HA disks that were pre-treated with different agents.

MRSA WRAMC #12 = type: cell-based, Staphylococcus aureus
Description: as §1

MRSA ATCC #43300 = type: cell-based, Staphylococcus aureus
Description: as §1

MRSA ATCC #33591 = type: cell-based, Staphylococcus aureus
Description: as §1

MRSA VVRAMC #1 = type: cell-based, Staphylococcus aureus
Description: as §1

MRSA VVRAMC #10 = type: cell-based, Staphylococcus aureus
Description: as §1

MRSA WRAMC #9 = type: cell-based, Staphylococcus aureus
Description: as §1

H-KKVVFWVKFK-NH2 [KSL-W, NH2-Lys-Lys-Val-Val-Phe-Trp-Val-Lys-Phe-Lys-CONH2]
MBC (A. baumannii WRAMC #15): 50 µg/mL | MBC (A. baumannii WRAMC #8): 25 µg/mL | MBC (A. baumannii WRAMC #18): 25 µg/mL | MIC (A. baumannii WRAMC #18): 12.5 µg/mL | MBC (A. baumannii WRAMC #4): 25 µg/mL | MBC (A. baumannii ATCC #19606): 100 µg/mL | MBC (A. baumannii WRAMC #13): 50 µg/mL | MBC (A. baumannii WRAMC #19): 100 µg/mL | MIC (A. baumannii WRAMC #19): 50 µg/mL | MBC (A. baumannii WRAMC #16): 50 µg/mL | MBC (A. baumannii WRAMC #5): 25 µg/mL | MIC (A. baumannii WRAMC #5): 12.5 µg/mL | MBC (A. baumannii WRAMC #11): 25 µg/mL | MBC (A. baumannii WRAMC #2): 100 µg/mL | MIC (A. baumannii WRAMC #2): 25 µg/mL | MBC (A. baumannii WRAMC #17): 25 µg/mL | MBC (A. baumannii WRAMC #14): 50 µg/mL | MIC (A. baumannii WRAMC #14): 25 µg/mL | MBC (VRE ATCC #51299): 200 µg/mL | MIC (VRE ATCC #51299): 100 µg/mL | MBC (VRE VVRAMC #7): 25 µg/mL | MBC (VRE WRAMC #3): 200 µg/mL | MIC (VRE WRAMC #3): 100 µg/mL | MBC (VRE WRAMC #6): 100 µg/mL | MIC (VRE WRAMC #6): 12.5 µg/mL | adherence of tritiated A. naeslundii to pretreated HA disks (Actinomyces naeslundii): great reduction in the number of bacteria that attached | MBC (MRSA WRAMC #12): >200 µg/mL | MIC (MRSA WRAMC #12): 200 µg/mL | MBC (MRSA ATCC #43300): 50 µg/mL | MIC (MRSA ATCC #43300): 25 µg/mL | MBC (MRSA ATCC #33591): 200 µg/mL | MIC (MRSA ATCC #33591): 100 µg/mL | MBC (MRSA VVRAMC #1): 100 µg/mL | MBC (MRSA VVRAMC #10): 200 µg/mL | MBC (MRSA WRAMC #9): >200 µg/mL | MIC (MRSA WRAMC #9): 200 µg/mL
